According to patent US20250099420A1, “SMALL MOLECULE MODULATORS OF GPR139 COMPLEX” (University of Florida Research Foundation, Incorporated, priority 2022, published 2025):
Where two headings read alike, the source gives them in different places.

Key:
GPR139 = target: T1, GPR139 (Homo sapiens, UniProt Q6DWJ6); assay: GPR139 Agonist titration / agonist counterscreen assay (calcium detection, HEK-GPR139 cells); type: cell-based; parameters: expressed in transfected cells; host or cells: HEK Aequorin cells, Maxcyte transient transfection; conditions: GPR139 Agonist Activity; for EC50: read-out: EC50; for Averaged Max % Response (±St. Dev.): activity relative to known control
T1 sequence (Q6DWJ6 1-353): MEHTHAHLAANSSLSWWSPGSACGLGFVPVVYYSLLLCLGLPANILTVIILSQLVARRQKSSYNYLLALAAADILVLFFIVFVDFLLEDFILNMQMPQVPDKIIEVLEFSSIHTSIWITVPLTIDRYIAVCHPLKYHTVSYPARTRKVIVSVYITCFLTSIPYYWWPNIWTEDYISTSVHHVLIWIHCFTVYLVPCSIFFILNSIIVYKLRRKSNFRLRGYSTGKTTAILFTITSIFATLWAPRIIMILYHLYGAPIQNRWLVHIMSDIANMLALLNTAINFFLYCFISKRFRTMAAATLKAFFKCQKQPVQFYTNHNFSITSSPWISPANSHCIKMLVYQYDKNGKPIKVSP
Method: GPR activity was assessed using a calcium detection assay. […] Negative control samples were treated with DMSO. […] Intracellular calcium was measured using Calcium 5.

parental HEK cells = assay: HEK parental Agonist Counterscreen Assay (non-transfected cells); type: cell-based; conditions: for Averaged Max % Response (±St. Dev.): activity relative to known control
Excerpt: The high control for the agonist counterscreen was Forskolin not acetylcholine.

[1] = Homo sapiens, HEK293, HEK Agonist Activity section of Table 4 (parental HEK counterscreen)
[2] = values printed in E-notation without unit
[3] = HEK Agonist Activity, parental non-transfected HEK cells
[4] = Homo sapiens, HEK293, HEK Agonist Activity, parental non-transfected HEK cells

| SMILES | Efficiency Ligand (GPR139) | Hill Slope (GPR139) | Lipophilic Efficiency (logD) (GPR139) | Lipophilic Efficiency (logP) (GPR139) | EC50 (GPR139; HEK-GPR139 cells) | Averaged Max % Response (±St. Dev.) (GPR139) | Lipophilic Efficiency (logD) (parental HEK cells; HEK Agonist Activity section) | Lipophilic Efficiency (logP) (parental HEK cells; HEK Agonist Activity section) | Averaged Max % Response (±St. Dev.) (parental HEK cells; HEK Agonist Activity section) | EC50 (parental HEK cells; [1]) | Lipophilic Efficiency (logD) (GPR139; based on logD) | Lipophilic Efficiency (logP) (GPR139; based on logP) | Hill Slope (GPR139; fitted dose-response curve) | Efficiency Ligand (GPR139; ligand efficiency) | EC50 (GPR139; [2]) | Lipophilic Efficiency (logD) (parental HEK cells; HEK Agonist Activity) | Lipophilic Efficiency (logP) (parental HEK cells; HEK Agonist Activity) | Averaged Max % Response (±St. Dev.) (parental HEK cells; HEK Agonist Activity) | EC50 (parental HEK cells; [3]) | further results |
| --- | --- | --- | --- | --- | --- | --- | --- | --- | --- | --- | --- | --- | --- | --- | --- | --- | --- | --- | --- | --- |
| CC(=O)N1CCSc2cc(S(=O)(=O)NC3CCC(C)CC3)ccc21 (centres unmarked) [SR-01000141798] | 0.31 | 0.65 | 3.15 | 3.15 | 4600 nM | 62.31 ± 7.50% | 2.66 | 2.66 | 2.60 ± 1.15% | > 14100 nM |  |  |  |  |  |  |  |  |  |  |
| CC(C)CN1CCNC(=O)C1CC(=O)NCCCn1ccc2ccccc21 (centres unmarked) [SR-01000176150] |  |  |  |  |  | 110.06 ± 19.04% |  |  |  |  | 6.35 | 6.03 | 0.64 | 0.40 | 19.2 nM | 3.48 | 3.17 | −3.65 ± 2.66% | > 14100 nM |  |
| Cc1ccc2c(CC(=O)NNC(=O)CC34CC5CC(CC(C5)C3)C4)coc2c1 [SR-01000054849] |  |  |  |  |  | 93.14 ± 10.62% | 1.41 | 1.41 | 1.19 ± 3.75% |  | 3.67 | 3.67 | 0.47 | 0.35 | 81.6 nM |  |  |  |  | EC50 (parental HEK cells; HEK Agonist Activity section of Table 4 (parental HEK counterscreen)): > 14800 nM |
| Cc1c(C=O)c2ccccc2n1CC(=O)NCc1ccccc1 [SR-01000269911] | 0.37 | 1.69 | 3.22 | 3.22 | 898 nM | 88.11 ± 5.39% | 2.02 | 2.02 | 5.27 ± 9.17% | > 14100 nM |  |  |  |  |  |  |  |  |  |  |
| O=C(CCc1nc2cccnc2n1Cc1cccs1)NCCc1ccccc1 [SR-01000077904] |  |  |  |  |  | 79.43 ± 7.55% |  |  |  |  | 4.54 | 4.54 |  | 0.41 |  | 1.20 | 1.20 | −12.58 ± 9.87% |  | EC50 (parental HEK cells; [4]): > 14100 nM |
| CC(Oc1ccc(O)cc1Cl)C(=O)NNC(=O)c1cccc(F)c1 (centres unmarked) [SR-01000520454] |  |  |  |  |  | 113.77 ± 7.21% |  |  |  |  | 5.60 | 5.48 |  | 0.53 | > 0.703 nM | 1.31 | 1.19 | 15.83 ± 2.96% |  | EC50 (parental HEK cells; [4]): > 13800 nM |
| CCC1CCCCN1C(=O)CN1C(=O)NC(C)(c2ccc3ccccc3c2)C1=O (centres unmarked) [SR-01000048417] |  |  |  |  |  | 111.02 ± 13.88% |  |  |  |  | 4.73 | 4.73 | 0.52 | 0.38 | 16.9 nM | 1.80 | 1.80 | −4.34 ± 6.43% | > 14300 nM |  |
| Cc1nn(CC(=O)NC2CCCc3ccccc32)c(=O)c2c1sc1ccccc12 (centres unmarked) [SR-01000139982] | 0.29 | 0.79 | 2.38 | 2.38 | 890 nM | 89.89 ± 26.17% | 1.18 | 1.18 | 9.26 ± 7.81% | > 14100 nM |  |  |  |  |  |  |  |  |  |  |
| Cc1cccc(CCNC(=O)c2c[nH]c3cc(-c4cn[nH]c4)ccc23)c1 [SR-00000007279] |  |  |  |  |  | 142.11 ± 3.85% |  |  |  |  | 4.81 | 4.80 | 0.18 | 0.38 | 43.1 nM | 2.30 | 2.29 | 17.20 ± 7.85% |  | EC50 (parental HEK cells; [4]): > 14100 nM |
| CCCCNC(=O)NNC(=O)CSc1cc(C)c(Br)cc1C [SR-01000061818] |  |  |  |  |  | 110.53 ± 3.36% |  |  |  |  | 4.41 | 4.41 | 0.71 | 0.50 | 16.3 nM | 1.46 | 1.46 | 3.00 ± 9.38% | > 14500 nM |  |
| C#CC1=C(CCCc2ccc(CC)cc2)CC(CCc2ccccc2CC)=C1 [SR-01000363853] | 0.29 | 0.77 | 2.73 | 2.73 |  | 87.50 ± 15.37% | 1.79 | 1.79 | −6.20 ± 7.21% | > 14100 nM |  |  |  |  |  |  |  |  |  |  |
| CCc1cccc(NC(=O)Cn2ncc3c2-c2ccccc2OC3)c1 [SR-01000098944] |  |  |  |  |  | 118.40 ± 16.09% |  |  |  |  | 4.22 | 4.22 | 0.20 | 0.43 | 22.4 nM | 1.42 | 1.42 | 16.33 ± 3.15% | > 14100 nM |  |
| COc1ccc(CCn2nc(-c3cccnc3)[nH]c2=O)cc1 [SR-01000335115] | 0.38 | 1.29 | 3.37 | 3.37 | 1300 nM | 86.17 ± 9.84% | 2.33 | 2.33 | 12.86 ± 9.78% | > 14100 nM |  |  |  |  |  |  |  |  |  |  |
| O=C(CSc1ccc2ccccc2c1)NNC(=O)c1ccc(Br)s1 [SR-01000069345] |  |  |  |  |  | 114.67 ± 3.82% |  |  |  |  | 4.37 | 4.37 | 1.18 | 0.49 | 3.7 nM | 0.77 | 0.77 | 15.34 ± 2.20% | > 14700 nM |  |
| Cc1cccc(C(=O)NNC(=O)CCc2ccccc2)c1 [SR-01000513008] | 0.42 | 0.93 | 3.32 | 3.32 | 454 nM | 109.30 ± 27.76% | 1.74 | 1.74 | −5.44 ± 7.74% | > 17100 nM |  |  |  |  |  |  |  |  |  |  |
